One data set concerns Liver microsomes. In words: Intrinsic clearance in human liver microsomes. The data set is classed as ADME, Microsome. On the technique in general: Microsomes from liver hold many membrane-bound enzymes, among them those of drug oxidation.
For the next data set, the target named is T1, Orexin receptor type 2 (Rattus norvegicus, UniProt P56719).
T1 sequence (P56719 whole entry): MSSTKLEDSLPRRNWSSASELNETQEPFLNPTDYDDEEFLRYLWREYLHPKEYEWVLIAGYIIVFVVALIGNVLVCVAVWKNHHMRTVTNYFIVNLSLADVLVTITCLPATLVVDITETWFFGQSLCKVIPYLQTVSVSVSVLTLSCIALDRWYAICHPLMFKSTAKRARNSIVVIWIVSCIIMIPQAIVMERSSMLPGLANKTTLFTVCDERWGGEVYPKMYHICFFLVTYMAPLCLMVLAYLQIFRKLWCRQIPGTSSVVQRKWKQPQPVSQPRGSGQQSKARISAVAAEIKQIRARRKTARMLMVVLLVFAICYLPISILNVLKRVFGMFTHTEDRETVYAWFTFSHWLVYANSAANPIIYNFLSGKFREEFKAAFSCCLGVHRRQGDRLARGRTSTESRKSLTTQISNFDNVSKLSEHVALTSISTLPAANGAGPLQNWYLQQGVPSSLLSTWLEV
The data set can be described thus: Antagonist activity at recombinant rat OX2R expressed in CHO cells by FLIPR calcium based functional assay. The data set is classed as cell-based.

Data set [1] concerns the target T2, Orexin/Hypocretin receptor type 1 (Homo sapiens, UniProt O43613).
T2 sequence (O43613 whole entry): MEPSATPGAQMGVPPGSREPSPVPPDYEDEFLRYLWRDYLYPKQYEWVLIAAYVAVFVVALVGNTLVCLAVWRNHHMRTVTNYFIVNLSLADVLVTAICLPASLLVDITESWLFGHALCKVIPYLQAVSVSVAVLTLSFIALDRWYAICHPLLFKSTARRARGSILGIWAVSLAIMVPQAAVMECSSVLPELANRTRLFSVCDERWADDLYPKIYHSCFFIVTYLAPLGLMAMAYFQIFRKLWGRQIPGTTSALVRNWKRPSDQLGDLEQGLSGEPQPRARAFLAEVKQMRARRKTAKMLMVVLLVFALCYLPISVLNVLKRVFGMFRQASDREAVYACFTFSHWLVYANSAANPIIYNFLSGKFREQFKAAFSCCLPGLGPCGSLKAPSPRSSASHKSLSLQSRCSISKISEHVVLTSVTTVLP
The data set can be described thus: Displacement of [3H]almorexant from recombinant human OX1R expressed in CHO cells. The class given is cell-based. In general terms: In a radioligand displacement assay an active substance lowers the binding of a labelled ligand.

For data set [2], the target named is T3, Orexin/Hypocretin receptor type 1 (Homo sapiens) (UniProt O43613).
T3 sequence (whole entry): T2 sequence (O43613 whole entry)
The data set can be described thus: Agonist activity at recombinant human OX1R expressed in CHO cells at 1 uM. The class given is functional, cell-based.

Data set [3] addresses T4, Orexin/Hypocretin receptor type 1 (Rattus norvegicus) (UniProt P56718).
T4 sequence (whole entry): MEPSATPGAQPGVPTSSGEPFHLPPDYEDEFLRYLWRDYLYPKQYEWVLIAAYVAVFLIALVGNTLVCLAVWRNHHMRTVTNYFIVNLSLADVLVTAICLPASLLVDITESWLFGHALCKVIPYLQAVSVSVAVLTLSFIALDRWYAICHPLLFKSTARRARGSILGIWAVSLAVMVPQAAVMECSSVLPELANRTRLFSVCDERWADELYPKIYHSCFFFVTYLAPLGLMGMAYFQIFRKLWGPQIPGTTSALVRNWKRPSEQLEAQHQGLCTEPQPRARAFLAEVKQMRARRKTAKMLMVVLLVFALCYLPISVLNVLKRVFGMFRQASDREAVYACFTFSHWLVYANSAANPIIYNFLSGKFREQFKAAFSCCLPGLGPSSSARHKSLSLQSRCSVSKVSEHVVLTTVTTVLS
In words: Agonist activity at recombinant rat OX1R expressed in CHO cells at 1 uM. The data set is classed as functional, cell-based.

A short description of data set [4]: Half life in CD rat at 1 mg/kg, iv and 3 mg/kg, po. The data set is classed as ADME, organism-based. The settings on record: in vivo.
Data set [5] can be described thus: Oral bioavailability in CD rat at 3 mg/kg. The data set is classed as ADME, organism-based. The note with it: in vivo.
Data set [6] is described as follows: Fraction unbound in CD rat plasma at 1 mg/kg, iv after 1 hrs. The class given is ADME, organism-based. Also noted: dose 1 mg/kg, route intravenous.
Data set [7] has as its system Rattus norvegicus. In words: Hypnotic activity in CD rat Circadian time model assessed as awake period at 3 mg/kg, po administered during active phase measured from starting time CT18 (reference value: 218 +/- 11.32 mins). The data set is classed as functional.
The subject of data set [8] is Rattus norvegicus. The data set can be described thus: Hypnotic activity in CD rat Circadian time model assessed as awake period at 30 mg/kg, po administered during active phase measured from starting time CT18 (reference value: 218 +/- 11.32 mins). The class given is functional.
Data set [9] has as its system Rattus norvegicus. In words: Hypnotic activity in CD rat Circadian time model assessed as non-rapid eye movement sleep at 30 mg/kg, po administered during active phase measured from starting time CT18 (reference value: 78.1 +/- 11.3 mins). The data set is classed as functional.
In data set [10] the test system is Rattus norvegicus. In words: Hypnotic activity in po dosed CD rat Circadian time model assessed as non-rapid eye movement latency period during active phase measured from starting time CT18. The data set is classed as functional, organism-based.
Data set [11] deals with Rattus norvegicus. The data set can be described thus: Neurotoxicity in CD rat assessed as impairment of motor coordination at 1 to 10 mg/kg, po by rotarod test. The class given is toxicity, organism-based. The settings on record: in vivo. Also on record: dose 1-10 mg/kg, route oral. (The rotarod test checks motor coordination on a turning rod.)

Usually pKi stands for the negative decadic logarithm of the Ki, by convention in mol/L. Broadly, the half-life is how long it takes for the measured level to halve. A low value points to rapid decline. A word on the bioavailability: it is dose-corrected exposure relative to a reference, in per cent. Lower therefore signals little systemic uptake. Broadly, the fraction unbound is the share of the substance not bound to proteins or other matrix. Low values mean little free substance, high ones much free substance.

pKi: −log10 of the molar value. Calls of active or inactive are those of the source. The rule behind the calls is not given here.

As for `Cc1nc(C(=O)N2CCCC[C@H]2CNC(=O)c2cccc3occc23)c(-c2ccc(F)cc2)s1` [SB-649868], the CL in the data set on Liver microsomes was 15.1 mL/min/g. Further, the pKi on Orexin receptor type 2 is 10.11; in data set [1], 9.12. Also, the result in data set [2] and in data set [3] was inactive. For the same compound, the half-life in data set [4] was under 36 min. The compound further displayed a bioavailability in [5] of 85%. In data set [6], this compound had a fraction unbound at 1 h of 0.0134. Further, the results for the Time with Rattus norvegicus [7], in the data set on Rattus norvegicus [8] and in the data set with Rattus norvegicus [9] were 194 min, 87 min and 186.6 min, respectively. Also, the Activity entry in the data set on Rattus norvegicus [10] is “Dose-dependent effect”; with Rattus norvegicus [11] it was “Non-toxic”.

These data come from ChEMBL document CHEMBL1828583, “Discovery process and pharmacological characterization of a novel dual orexin 1 and orexin 2 receptor antagonist useful for treatment of sleep disorders” (Bioorg Med Chem Lett, 2011).
